# Measurements from PMC5278714, “Safety and Pharmacokinetics of CD101 IV, a Novel Echinocandin, in Healthy Adults” (Antimicrobial Agents and Chemotherapy, 2017).
# Where two headings read alike, the source gives them in different places. Numbered stars: 1 amine (or outer) side, 2 acyl side, 3 side chain; on linkers, the order of the positions; unused ones are H or OH. Bridge positions count the residues as written; N and C are the ends. Square brackets hold non-standard residues; d marks the D form. Peptide text beside a SMILES is read from it. * marks the point of attachment. Orn(4R-OH,5R-OCH2CH2NMe3+) = C[N+](C)(C)CCO[C@@H](N[*:3])[C@H](O)C[C@H](N[*:1])C(=O)[*:2]; pTerphenylCO(4''-OnC5H11) = CCCCCOc1ccc(-c2ccc(-c3ccc(C(=O)*)cc3)cc2)cc1; hTyr(3S-OH,4S-OH) = N[C@H](C(=O)O)[C@H](O)[C@@H](O)c1ccc(O)cc1; Pro(3S-OH,4S-Me) = C[C@H]1CN[C@H](C(=O)O)[C@H]1O; Hyp = O=C(O)[C@@H]1C[C@@H](O)CN1
# Legend:
# Format in all cases: in vivo, humans
# [1] = Multiple-ascending-dose phase 1 study: plasma and urine pharmacokinetics; settings: for Vd / clearance / half-life / level at 144 h: plasma; for Vd / clearance / half-life / level at 144 h / dose excreted: iv; for level at 144 h: read-out: trough concentration on day 7 (144 h postdose); for dose excreted: urine
# Procedure: (§1) The single-ascending-dose and multiple-ascending-dose studies were phase 1, randomized, double-blind, dose-escalation, placebo-controlled, single-center safety trials of CD101 IV in healthy adults (ClinicalTrials.gov identifiers: NCT02516904 for the single-ascending-dose study; NCT02551549 for the multiple-ascending-dose study). In the single-ascending-dose study, 4 cohorts (corresponding to doses of 50, 100, 200, and 400 mg) of 8 subjects (6 active and 2 placebo) received CD101 IV or placebo infused over 60 (±5) min. In the multiple-ascending-dose study, 3 cohorts (cohort 1, 100 mg ×2 doses; cohort 2, 200 mg ×2 doses; cohort 3, 400 mg ×3 doses) of 8 subjects (6 active and 2 placebo) received CD101 IV or placebo (normal saline solution) infused over 60 (±5) min, with doses separated by 7 days.
# (§2) Extensive PK sampling from plasma and urine was performed for all subjects following study drug administration and over the 3 weeks after the last dose of study drug. Plasma and urine samples from subjects who received CD101 IV were analyzed by a bioanalytical laboratory for CD101 concentration using a validated liquid chromatography-tandem mass spectrometry method with a lower limit of quantitation of 10 ng/ml.
# (§3) Pharmacokinetics were assessed in the PK analysis population and included Cmax, AUC, Cl, elimination rate constant (λz), and terminal t1/2. Plasma concentration-time profiles were constructed for each subject and dosing cohort. For each plasma concentration-time curve, PK parameters were determined directly from inspection of the data or calculated using noncompartmental methods with validated PK software (Phoenix WinNonlin, Version 6.3). Urine concentration data were used to determine renal excretion and drug recovery rates. The number of subjects was selected to allow sufficient evaluation of safety, tolerability, and PK and was consistent with phase 1 standards of practice ([44]).
# healthy adults [2] = assay: Multiple-ascending-dose phase 1 study: safety and tolerability
# Procedure: as §1
# (§4) All subjects were monitored for AEs throughout the study until 21 days after the last dose of study drug. Electrocardiograms, hematology and serum chemistry evaluations, and UA were performed at screening, on day −1, and at various time points during and for 14 days after the dosing period. Subjects remained in the clinical research unit for observation and safety assessments from day −1 until 7 days after the last dose of study drug. Three additional safety assessments were performed at weekly follow-up visits following the last dose of study drug. The long follow-up period ensured that any delayed safety events were captured, since CD101 has a very long t1/2 and plasma levels are expected to persist for several weeks. Safety was assessed ≥5 days after dosing by study physicians to determine whether it was safe to proceed to the next dose.
# (§5) Safety was assessed in the safety analysis population. Safety was evaluated by presenting summaries of AEs, ECGs, clinical laboratory evaluations (hematology evaluation, chemistry panel, and UA), and vital signs. Adverse events were coded using the Medical Dictionary for Regulatory Activities Version 18.0. A TEAE was an AE that occurred during or after study drug administration and up through 21 (±1) days after study drug administration. The incidence of TEAEs was summarized by system organ class and preferred term, by relationship to study drug, and by severity. In addition, the incidence of serious TEAEs and the incidence of TEAEs leading to discontinuation of study drug were summarized by system organ class and preferred term. Descriptive statistics for clinical laboratory test results and vital signs, and for changes from baseline, were summarized by time point. Incidences of potentially clinically significant clinical laboratory results and vital signs were also summarized by time point. The numbers and percentages of abnormal ECGs were summarized by time point.
# healthy adults [3] = assay: Single-ascending-dose phase 1 study: safety and tolerability
# Procedure: as §1, §4, §5
# [4] = Single-ascending-dose phase 1 study: plasma and urine pharmacokinetics; settings: for Vd / clearance / half-life / Cmax: plasma, arithmetic mean; for Vd: iv; for Cmax: LC-MS/MS
# Procedure: as §1, §2, §3
# [5] = human, 100 mg, 100 mg IV once weekly x2, day 1, sampling interval 144 h, arithmetic mean
# [6] = human, 100 mg, 100 mg IV once weekly x2, day 8, sampling interval 480 h, arithmetic mean
# [7] = human, 200 mg, 200 mg IV once weekly x2, day 1, sampling interval 144 h, arithmetic mean
# [8] = human, 200 mg, 200 mg IV once weekly x2, day 8, sampling interval 480 h, arithmetic mean
# [9] = human, 400 mg, 400 mg IV once weekly x3, day 1, sampling interval 144 h, arithmetic mean
# [10] = human, 400 mg, 400 mg IV once weekly x3, day 15, sampling interval 480 h, arithmetic mean
# [11] = single and multiple doses, all dose levels
# [12] = human, single 50 mg IV infusion over 1 h
# [13] = human, single 100 mg IV infusion over 1 h
# [14] = human, single 200 mg IV infusion over 1 h
# [15] = human, single 400 mg IV infusion over 1 h
smiles,measurement,setting,value
"CCCCCOc1ccc(-c2ccc(-c3ccc(C(=O)N[C@H]4C[C@@H](O)[C@@H](OCC[N+](C)(C)C)NC(=O)[C@@H]5[C@@H](O)[C@@H](C)CN5C(=O)[C@H]([C@@H](C)O)NC(=O)[C@H]([C@H](O)[C@@H](O)c5ccc(O)cc5)NC(=O)[C@@H]5C[C@@H](O)CN5C(=O)[C@H]([C@@H](C)O)NC4=O)cc3)cc2)cc1 [CD101] ({pTerphenylCO(4''-OnC5H11)}-[Orn(4R-OH,5R-OCH2CH2NMe3+)]T[Hyp][hTyr(3S-OH,4S-OH)]T[Pro(3S-OH,4S-Me)]; lactam 1-C)",Vss,"[1]; 100 mg IV once weekly x2, day 8, arithmetic mean",29.3 L
same,cumulative amount excreted in urine,"[1]; cohort 1 (100 mg x2), day 1",52.0 µg
same,mean renal clearance,"[1]; cohort 1 (100 mg x2), day 1",0.1877 mL/h
same,cumulative amount excreted in urine,"[1]; cohort 1 (100 mg x2), day 8",151.4 µg
same,cumulative amount excreted in urine,"[1]; cohort 2 (200 mg x2), day 1",145.0 µg
same,cumulative amount excreted in urine,"[1]; cohort 2 (200 mg x2), day 8",400.7 µg
same,cumulative amount excreted in urine,"[1]; cohort 3 (400 mg x3), day 1",330.6 µg
same,cumulative amount excreted in urine,"[1]; cohort 3 (400 mg x3), day 15",987.5 µg
same,mean renal clearance,"[1]; cohort 3 (400 mg x3), day 15",0.5965 mL/h
same,"cumulative amount excreted in urine, times higher than on day 1",[1]; days 8 and 15 vs day 1,approximately 3 times
same,t1/2,[1]; following the first dose,approximately 80 h
same,Vd,"[1]; human, 100 mg, 100 mg IV once weekly x2, day 1, arithmetic mean, read-out: Vss",28.8 L
same,Vd,"[1]; human, 100 mg, 100 mg IV once weekly x2, day 1, arithmetic mean, read-out: Vz",29.5 L
same,clearance,[1]; [5],4.3 mL/min
same,half-life,[1]; [5],79.1 h
same,Vd,"[1]; human, 100 mg, 100 mg IV once weekly x2, day 8, arithmetic mean, read-out: Vz",33.8 L
same,clearance,[1]; [6],2.48 mL/min
same,half-life,[1]; [6],158 h
same,Vd,"[1]; human, 200 mg, 200 mg IV once weekly x2, day 1, arithmetic mean, read-out: Vss",31.7 L
same,Vd,"[1]; human, 200 mg, 200 mg IV once weekly x2, day 1, arithmetic mean, read-out: Vz",32.8 L
same,clearance,[1]; [7],4.65 mL/min
same,half-life,[1]; [7],81.3 h
same,Vd,"[1]; human, 200 mg, 200 mg IV once weekly x2, day 8, arithmetic mean, read-out: Vss",28.5 L
same,Vd,"[1]; human, 200 mg, 200 mg IV once weekly x2, day 8, arithmetic mean, read-out: Vz",30.9 L
same,clearance,[1]; [8],2.58 mL/min
same,half-life,[1]; [8],140 h
same,Vd,"[1]; human, 400 mg, 400 mg IV once weekly x3, day 1, arithmetic mean, read-out: Vss",29.6 L
same,Vd,"[1]; human, 400 mg, 400 mg IV once weekly x3, day 1, arithmetic mean, read-out: Vz",31.2 L
same,clearance,[1]; [9],4.47 mL/min
same,half-life,[1]; [9],81 h
same,Vd,"[1]; human, 400 mg, 400 mg IV once weekly x3, day 15, arithmetic mean, read-out: Vss",25.4 L
same,Vd,"[1]; human, 400 mg, 400 mg IV once weekly x3, day 15, arithmetic mean, read-out: Vz",27.9 L
same,clearance,[1]; [10],2.1 mL/min
same,half-life,[1]; [10],152 h
same,level at 144 h,"[1]; human, 400 mg, following the first dose",~4000 ng/mL
same,level at 144 h,"[1]; human, 400 mg, following the third (last) dose",~7000 ng/mL
same,half-life,"[1]; human, following the second or third dose",~150 h
same,dose excreted,"[1]; human, all dose levels, both studies, read-out: fraction of dose excreted",< 1%
same,dose excreted,"[1]; human, LC-MS/MS, read-out: amount of CD101 excreted in urine",≤ 0.26%
same,AUC(0-t),"[1]; human, 200 mg IV once weekly x2, day 1, plasma, arithmetic mean, read-out: AUC0–168",570 µg·h/mL
same,Cmax,"[1]; human, 400 mg IV once weekly x3, day 1, plasma, arithmetic mean",22700 ng/mL
same,apparent clearance,[1]; [11],< 0.28 L/h
same,half-life (t1/2),[1]; [11],> 80 h
same,"subjects with mild, transient infusion reactions (flushing, feeling hot, nausea, chest tightness)","healthy adults [2]; all CD101 cohorts, primarily cohort 3, most common with third dose",Four
same,subjects with TEAEs related to study drug,healthy adults [2]; cohort 1 (100 mg x2 weeks),1 subject
same,subjects with TEAEs related to study drug,healthy adults [2]; cohort 2 (200 mg x2 weeks),1 subject
same,subjects with moderate TEAEs,"healthy adults [2]; cohort 2 (200 mg x2 weeks), arthropod bite and pruritus",1 subject
same,subjects with TEAEs related to study drug,healthy adults [2]; cohort 3 (400 mg x3 weeks),4 subjects
same,subjects with gastrointestinal disorders (system organ class),healthy adults [2]; cohort 3 (400 mg x3 weeks),4 [67%] subjects [%]
same,subjects with vascular disorders (system organ class),healthy adults [2]; cohort 3 (400 mg x3 weeks),3 [50%] subjects [%]
same,subjects with moderate TEAEs,"healthy adults [2]; cohort 3 (400 mg x3 weeks), constipation and myalgia",2 subjects
same,"SAEs, severe AEs, withdrawals due to an AE, deaths","healthy adults [3]; both studies, all dose levels","no serious adverse events (SAEs), severe adverse events (AEs), withdrawals due to an AE, or deaths"
same,"laboratory abnormalities, vital signs, ECG","healthy adults [3]; both studies, all dose levels",no clinically meaningful trends in postbaseline laboratory abnormalities
same,overall safety and tolerability,"healthy adults [3]; both studies, single dose up to 400 mg, multiple doses up to 400 mg once weekly for 3 weeks",safe and well tolerated at all dose levels tested
same,subjects with gastrointestinal disorders (system organ class),healthy adults [3]; cohort 1 (single 50 mg),2 [33%] subjects [%]
same,subjects with musculoskeletal and connective tissue disorders,healthy adults [3]; cohort 1 (single 50 mg),2 [33%] subjects [%]
same,subjects with gastrointestinal disorders (system organ class),healthy adults [3]; cohort 3 (single 200 mg),2 [33%] subjects [%]
same,subjects with general disorders and administration site conditions,healthy adults [3]; cohort 3 (single 200 mg),2 [33%] subjects [%]
same,subjects with musculoskeletal and connective tissue disorders,healthy adults [3]; cohort 3 (single 200 mg),2 subjects
same,subjects with moderate TEAEs,"healthy adults [3]; cohort 3 (single 200 mg), ear pain",1 subject
same,subjects with musculoskeletal and connective tissue disorders,healthy adults [3]; cohort 4 (single 400 mg),1 subject
same,subjects with moderate TEAEs,"healthy adults [3]; cohort 4 (single 400 mg), headache",1 subject
same,Vd,"[4]; human, 50 mg, single 50 mg IV infusion over 1 h, read-out: Vss (volume of distribution at steady state)",36 L
same,Vd,"[4]; human, 50 mg, single 50 mg IV infusion over 1 h, read-out: Vz (apparent volume of distribution during terminal phase)",43.2 L
same,Vd,"[4]; human, 100 mg, single 100 mg IV infusion over 1 h, read-out: Vss (volume of distribution at steady state)",42.9 L
same,Vd,"[4]; human, 100 mg, single 100 mg IV infusion over 1 h, read-out: Vz (apparent volume of distribution during terminal phase)",50.6 L
same,Vd,"[4]; human, 200 mg, single 200 mg IV infusion over 1 h, read-out: Vss (volume of distribution at steady state)",34.4 L
same,Vd,"[4]; human, 200 mg, single 200 mg IV infusion over 1 h, read-out: Vz (apparent volume of distribution during terminal phase)",39.7 L
same,Vd,"[4]; human, 400 mg, single 400 mg IV infusion over 1 h, read-out: Vss (volume of distribution at steady state)",35.9 L
same,Vd,"[4]; human, 400 mg, single 400 mg IV infusion over 1 h, read-out: Vz (apparent volume of distribution during terminal phase)",41.6 L
same,clearance,[4]; [12],3.75 mL/min
same,half-life,[4]; [12],133 h
same,Cmax,"[4]; human, single 100 mg IV infusion over 1 h, read-out: Cmax",4860 ng/mL
same,clearance,[4]; [13],4 mL/min
same,half-life,[4]; [13],146 h
same,clearance,[4]; [14],3.65 mL/min
same,half-life,[4]; [14],125 h
same,clearance,[4]; [15],3.77 mL/min
same,half-life,[4]; [15],129 h
same,Cmax,[4]; single 400 mg IV infusion over 1 h,22700 ng/mL
same,mean half-life (t1/2) through the first week (up to day 7) of plasma sampling,[4]; single 50 to 400 mg IV doses,> 80 h
